How the values were obtained:
Experiment in all cases: combination Emax (second highest fraction inhibited in the dose matrix, 72 h); higher = more inhibition; extreme values may be limits of the assay
[1] = tested on: MFM-223 (Breast Carcinoma)
Summary of the method: (§1)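 Cell lines grown in DMEM/F12 or RPMI with 10% FBS were plated in 1536-well plates and held 24 hours at 37°C, 5% CO2 before 72 hours of exposure to two-drug dose matrices, with DMSO typically at 0.2%. CellTiter-Glo 2.0 luminescence gave viability, which was converted to inhibition. Vehicle wells were set to 0 and blank wells to 1. Combination Emax is the second-highest inhibition in the matrix, and Bliss excess is the observed combination effect minus the expected EA + EB − EA·EB, where EA and EB are the single-agent effects.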

[2] = tested on: K-562 (Chronic Myelogenous Leukemia)
Summary of the method: as §1

TC-71 (Ewing's Sarcoma) = tested on: TC-71 (Ewing's Sarcoma)
Summary of the method: as §1

[3] = tested on: DND-41 (T-Lymphoblastic Leukemia)
Summary of the method: as §1

[4] = tested on: NCI-H847 (Small Cell Lung Carcinoma)
Summary of the method: as §1

[5] = tested on: SR (Other Blood Carcinomas)
Summary of the method: as §1

[6] = tested on: L-540 (Hodgkin's Lymphoma)
Summary of the method: as §1

WM-115 (Melanoma) = tested on: WM-115 (Melanoma)
Summary of the method: as §1

[7] = tested on: PANC-08-13 (Pancreatic Carcinoma)
Summary of the method: as §1

[8] = tested on: SU-DHL-8 (B-Cell Non-Hodgkin's Lymphoma)
Summary of the method: as §1

[9] = tested on: NCI-H1792 (Lung Adenocarcinoma)
Summary of the method: as §1

[10] = tested on: MS751 (Cervical Carcinoma)
Summary of the method: as §1

NCI-H2818 (Mesothelioma) = tested on: NCI-H2818 (Mesothelioma)
Summary of the method: as §1

[11] = tested on: HDQ-P1 (Breast Carcinoma)
Summary of the method: as §1

[12] = tested on: GR-ST (B-Lymphoblastic Leukemia)
Summary of the method: as §1

[13] = tested on: KCL-22 (Chronic Myelogenous Leukemia)
Summary of the method: as §1

[14] = tested on: KARPAS-45 (T-Lymphoblastic Leukemia)
Summary of the method: as §1

[15] = tested on: MKN28 (Gastric Carcinoma)
Summary of the method: as §1

CHP-212 (Neuroblastoma) = tested on: CHP-212 (Neuroblastoma)
Summary of the method: as §1

ES1 (Ewing's Sarcoma) = tested on: ES1 (Ewing's Sarcoma)
Summary of the method: as §1

Row | Structure (SMILES) | combination Emax [1] | combination Emax [2] | combination Emax (TC-71 (Ewing's Sarcoma)) | combination Emax [3] | combination Emax [4] | combination Emax [5] | combination Emax [6] | combination Emax (WM-115 (Melanoma)) | combination Emax [7] | combination Emax [8] | combination Emax [9] | combination Emax [10] | combination Emax (NCI-H2818 (Mesothelioma)) | combination Emax [11] | combination Emax [12] | combination Emax [13] | combination Emax [14] | combination Emax [15] | combination Emax (CHP-212 (Neuroblastoma)) | combination Emax (ES1 (Ewing's Sarcoma))
1 | CC1(C)CCC(CN2CCN(c3ccc(C(=O)NS(=O)(=O)c4ccc(NCC5CCOCC5)c([N+](=O)[O-])c4)c(Oc4cnc5[nH]ccc5c4)c3)CC2)=C(c2ccc(Cl)cc2)C1 [Venetoclax] + C=CCn1c(=O)c2cnc(Nc3ccc(N4CCN(C)CC4)cc3)nc2n1-c1cccc(C(C)(C)O)n1 [AZD1775] (first compound max 1 µM, partner max 1 µM) | 0.457 | 0.892 | 0.424 | 1 | 0.992 | 0.995 | 0.957 | 0.27 | 0.328 | 1 | 0.828 | 0.261 | 0.331 | 0.532 | 0.813 | 0.943 | 0.955 | 0.501 | 0.769 | 0.946
2 | CC1(C)CCC(CN2CCN(c3ccc(C(=O)NS(=O)(=O)c4ccc(NCC5CCOCC5)c([N+](=O)[O-])c4)c(Oc4cnc5[nH]ccc5c4)c3)CC2)=C(c2ccc(Cl)cc2)C1 [Venetoclax] + CCN(CCO)CCCOc1ccc2c(Nc3cc(CC(=O)Nc4cccc(F)c4)[nH]n3)ncnc2c1 [AZD2811] (first compound max 1 µM, 7x7, partner max 1 µM) | 0.252 | 0.393 | 0.88 | 0.94 | 1 | 0.946 | 0.723 | 0.211 | 0.212 | 0.414 | 0.216 | 0.424 | 0.251 | 0.172 | 0.648 | 0.376 | 0.96 | 0.221 | 0.74 | 0.759
3 | CC1(C)CCC(CN2CCN(c3ccc(C(=O)NS(=O)(=O)c4ccc(NCC5CCOCC5)c([N+](=O)[O-])c4)c(Oc4cnc5[nH]ccc5c4)c3)CC2)=C(c2ccc(Cl)cc2)C1 [Venetoclax] + CN(C)CCCOc1ccc(-c2ccc3ncc4c(c3c2)n(C2CCOCC2)c(=O)n4C)cn1 [AZD0156] (first compound max 1 µM, 7x7, partner max 1 µM) | 0.155 | 0.374 | 0.294 | 0.893 | 0.378 | 0.907 | 0.886 | 0.179 | 0.189 | 0.334 | 0.223 | 0.198 | 0.284 | 0.139 | 0.704 | 0.212 | 0.478 | 0.26 | 0.17 | 0.82
4 | CC1(C)CCC(CN2CCN(c3ccc(C(=O)NS(=O)(=O)c4ccc(NCC5CCOCC5)c([N+](=O)[O-])c4)c(Oc4cnc5[nH]ccc5c4)c3)CC2)=C(c2ccc(Cl)cc2)C1 [Venetoclax] + COc1cc(Nc2ncc3c(n2)-c2ccc(Cl)cc2C(c2c(F)cccc2OC)=NC3)ccc1C(=O)O [Alisertib] (first compound max 1 µM, 7x7, partner max 10 µM) | 0.849 | 0.693 | 0.855 | 0.947 | 1 | 0.966 | 0.89 | 0.379 | 0.302 | 0.83 | 0.65 | 0.724 | 0.36 | 0.41 | 0.631 | 0.811 | 0.982 | 0.245 | 0.855 | 0.842
5 | CC1(C)CCC(CN2CCN(c3ccc(C(=O)NS(=O)(=O)c4ccc(NCC5CCOCC5)c([N+](=O)[O-])c4)c(Oc4cnc5[nH]ccc5c4)c3)CC2)=C(c2ccc(Cl)cc2)C1 [Venetoclax] + C[C@@H]1COCCN1C2=NC(=NC(=C2)C3(CC3)[S@](=N)(=O)C)C4=C5C=CNC5=NC=C4 [AZD6738] (first compound max 1 µM, 7x7, partner max 10 µM) | 0.752 | 0.788 | 0.954 | 0.987 | 0.999 | 0.973 | 0.959 | 0.524 | 0.421 | 0.99 | 0.725 | 0.424 | 0.394 | 0.399 | 0.762 | 0.951 | 0.941 | 0.488 | 0.792 | 0.942
6 | CC1(C)CCC(CN2CCN(c3ccc(C(=O)NS(=O)(=O)c4ccc(NCC5CCOCC5)c([N+](=O)[O-])c4)c(Oc4cnc5[nH]ccc5c4)c3)CC2)=C(c2ccc(Cl)cc2)C1 [Venetoclax] + C[C@@H](Nc1cc(F)cc(F)c1)c1cc(C(=O)N(C)C)cc2c(=O)cc(N3CCOCC3)oc12 [AZD8186] (first compound max 1 µM, 7x7, partner max 3 µM) | 0.11 | 0.347 | 0.147 | 0.921 | 0.844 | 0.81 | 0.661 | 0.447 | 0.184 | 0.254 | 0.109 | 0.169 | 0.129 | 0.211 | 0.633 | 0.299 | 0.833 | 0.115 | 0.314 | 0.395
7 | CC1(C)CCC(CN2CCN(c3ccc(C(=O)NS(=O)(=O)c4ccc(NCC5CCOCC5)c([N+](=O)[O-])c4)c(Oc4cnc5[nH]ccc5c4)c3)CC2)=C(c2ccc(Cl)cc2)C1 [Venetoclax] + Cc1cc2ncnn2cc1Nc1ncc2c(n1)n(C1CCOCC1)c(=O)n2C [AZD7648] (first compound max 1 µM, 7x7, partner max 10 µM) | 0.161 | 0.339 | 0.262 | 0.885 | 0.735 | 0.82 | 0.787 | 0.238 | 0.218 | 0.354 | 0.397 | 0.191 | 0.352 | 0.189 | 0.679 | 0.159 | 0.6 | 0.229 | 0.314 | 0.46
8 | CC1(C)CCC(CN2CCN(c3ccc(C(=O)NS(=O)(=O)c4ccc(NCC5CCOCC5)c([N+](=O)[O-])c4)c(Oc4cnc5[nH]ccc5c4)c3)CC2)=C(c2ccc(Cl)cc2)C1 [Venetoclax] + Cn1cnc2c(F)c(Nc3ccc(Br)cc3Cl)c(C(=O)NOCCO)cc21 [Selumetinib] (first compound max 1 µM, 7x7, partner max 3 µM) | 0.24 | 0.414 | 0.291 | 0.891 | 0.168 | 0.791 | 0.493 | 0.42 | 0.184 | 0.31 | 0.251 | 0.191 | 0.133 | 0.182 | 0.481 | 0.318 | 0.317 | 0.278 | 0.878 | 0.338

Reference: the supplement of paper PMC11061612
